Results as given in ChEMBL document CHEMBL5150003, “Why All the Fury over Furin?” (J Med Chem, 2022).
Values belong to the compound of their own block, whether it stands above or below them. Peptide text beside a SMILES is read from it.

Key:
[1] = biological target: T1, Proprotein convertase subtilisin/kexin type 6 (Homo sapiens, UniProt P29122); assay: Inhibition of PACE4 (unknown origin)
T1 sequence (P29122 whole entry): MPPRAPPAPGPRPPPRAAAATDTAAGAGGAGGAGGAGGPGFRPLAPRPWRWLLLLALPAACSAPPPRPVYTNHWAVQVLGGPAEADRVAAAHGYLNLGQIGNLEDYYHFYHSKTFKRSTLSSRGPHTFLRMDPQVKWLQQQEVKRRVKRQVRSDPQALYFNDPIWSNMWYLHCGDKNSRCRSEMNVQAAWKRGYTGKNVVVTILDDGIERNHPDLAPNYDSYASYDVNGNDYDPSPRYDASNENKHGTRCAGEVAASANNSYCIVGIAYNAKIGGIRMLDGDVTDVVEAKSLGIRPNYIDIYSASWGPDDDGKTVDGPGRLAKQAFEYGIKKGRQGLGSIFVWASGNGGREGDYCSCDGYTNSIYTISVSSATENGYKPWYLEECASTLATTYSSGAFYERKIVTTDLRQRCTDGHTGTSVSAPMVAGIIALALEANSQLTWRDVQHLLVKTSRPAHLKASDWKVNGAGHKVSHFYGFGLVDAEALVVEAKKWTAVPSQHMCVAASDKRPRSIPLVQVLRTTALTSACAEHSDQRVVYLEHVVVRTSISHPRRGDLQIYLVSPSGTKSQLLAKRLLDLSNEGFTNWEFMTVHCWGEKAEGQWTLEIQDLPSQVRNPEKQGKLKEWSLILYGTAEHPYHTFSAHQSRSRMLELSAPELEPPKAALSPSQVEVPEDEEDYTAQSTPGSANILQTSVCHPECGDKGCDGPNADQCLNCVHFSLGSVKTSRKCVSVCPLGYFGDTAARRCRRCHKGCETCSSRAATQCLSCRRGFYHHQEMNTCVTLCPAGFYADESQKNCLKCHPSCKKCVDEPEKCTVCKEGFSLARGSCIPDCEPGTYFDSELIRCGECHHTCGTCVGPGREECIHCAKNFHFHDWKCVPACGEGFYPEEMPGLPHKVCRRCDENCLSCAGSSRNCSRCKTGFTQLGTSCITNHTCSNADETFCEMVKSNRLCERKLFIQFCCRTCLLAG

Furin [2] = biological target: T2, Furin (Homo sapiens, UniProt P09958); assay: Inhibition of furin (unknown origin)
[3] = Inhibition of human papilloma virus-11 replication in HEK293 cells measured by transient DNA replication assay; type: functional, cell-based; conditions: human papillomavirus 11, HEK293
Furin [4] = biological target: T2, Furin; assay: Inhibition of furin in human U2OS cells measured after 24 hrs by fluorescence assay; type: cell-based
Furin [5] = biological target: T2, Furin; assay: Inhibition of Tev-FLAG-His-tagged furin (108 to 574 residues) (unknown origin) using FAM-QRVRRAVGIDK-TAMRA as substrate and measured after 2 hrs
Mus musculus [6] = assay: Antifibrotic activity against bleomycin-induced mouse lung fibrosis model assessed as inhibition of TGF-beta secretion in lung at 10 mg/kg, po administered once daily; type: functional
Mus musculus [7] = assay: Antifibrotic activity against bleomycin-induced mouse lung fibrosis model assessed as inhibition of hydroxyproline content in lung at 10 mg/kg, po administered once daily; type: functional
Furin [8] = biological target: T2, Furin; assay: Inhibition of soluble human furin using boc-RVRR-MCA as substrate incubated for 45 mins and measured by fluorescence assay
[9] = Inhibition of porcine trypsin using Mes-DArg-Gly-Arg-AMC as substrate and measured by fluorescence assay; design: species or system Sus scrofa
Coagulation factor X = Coagulation factor X (Homo sapiens, UniProt P00742); assay: Inhibition of human fXa using Mes-DArg-Pro-Arg-AMC as substrate and measured by fluorescence assay
Prothrombin = Prothrombin (Bos taurus, UniProt P00735); assay: Inhibition of bovine thrombin using Tos-Gly-Pro-Arg-AMC as substrate and measured by fluorescence assay
Furin [10] = biological target: T2, Furin; assay: Inhibition of recombinant human furin using Phac-Arg-Val-Arg-Arg-AMC as substrate incubated for 30 mins and measured by microplate reader method
Plasminogen = Plasminogen (Homo sapiens, UniProt P00747); assay: Inhibition of human plasmin using Mes-DArg-Phe-Arg-AMC as substrate and measured by fluorescence assay
Sequence of Plasminogen (P00747 97-580 limits assumed): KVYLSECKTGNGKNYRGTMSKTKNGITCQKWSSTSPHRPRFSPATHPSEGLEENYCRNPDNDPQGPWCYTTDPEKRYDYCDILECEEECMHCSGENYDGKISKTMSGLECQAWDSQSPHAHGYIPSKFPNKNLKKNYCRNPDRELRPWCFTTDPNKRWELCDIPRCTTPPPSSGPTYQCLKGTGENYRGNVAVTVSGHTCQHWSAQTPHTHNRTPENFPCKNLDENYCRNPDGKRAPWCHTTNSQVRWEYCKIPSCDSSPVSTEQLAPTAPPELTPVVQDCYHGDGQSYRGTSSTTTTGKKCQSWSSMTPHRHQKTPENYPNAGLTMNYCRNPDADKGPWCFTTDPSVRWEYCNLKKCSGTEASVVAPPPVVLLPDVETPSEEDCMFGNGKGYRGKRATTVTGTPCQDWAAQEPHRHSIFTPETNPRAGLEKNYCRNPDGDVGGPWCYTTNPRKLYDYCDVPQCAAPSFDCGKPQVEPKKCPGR
Sequence of Plasminogen (P00747 581-810 limits assumed): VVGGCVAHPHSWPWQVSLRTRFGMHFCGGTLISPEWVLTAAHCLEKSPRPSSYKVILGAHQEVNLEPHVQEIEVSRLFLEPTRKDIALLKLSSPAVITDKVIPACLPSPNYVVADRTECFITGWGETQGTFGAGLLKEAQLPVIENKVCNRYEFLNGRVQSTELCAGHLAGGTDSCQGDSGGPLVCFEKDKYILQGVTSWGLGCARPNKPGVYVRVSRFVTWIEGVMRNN

T2 sequence (P09958 whole entry): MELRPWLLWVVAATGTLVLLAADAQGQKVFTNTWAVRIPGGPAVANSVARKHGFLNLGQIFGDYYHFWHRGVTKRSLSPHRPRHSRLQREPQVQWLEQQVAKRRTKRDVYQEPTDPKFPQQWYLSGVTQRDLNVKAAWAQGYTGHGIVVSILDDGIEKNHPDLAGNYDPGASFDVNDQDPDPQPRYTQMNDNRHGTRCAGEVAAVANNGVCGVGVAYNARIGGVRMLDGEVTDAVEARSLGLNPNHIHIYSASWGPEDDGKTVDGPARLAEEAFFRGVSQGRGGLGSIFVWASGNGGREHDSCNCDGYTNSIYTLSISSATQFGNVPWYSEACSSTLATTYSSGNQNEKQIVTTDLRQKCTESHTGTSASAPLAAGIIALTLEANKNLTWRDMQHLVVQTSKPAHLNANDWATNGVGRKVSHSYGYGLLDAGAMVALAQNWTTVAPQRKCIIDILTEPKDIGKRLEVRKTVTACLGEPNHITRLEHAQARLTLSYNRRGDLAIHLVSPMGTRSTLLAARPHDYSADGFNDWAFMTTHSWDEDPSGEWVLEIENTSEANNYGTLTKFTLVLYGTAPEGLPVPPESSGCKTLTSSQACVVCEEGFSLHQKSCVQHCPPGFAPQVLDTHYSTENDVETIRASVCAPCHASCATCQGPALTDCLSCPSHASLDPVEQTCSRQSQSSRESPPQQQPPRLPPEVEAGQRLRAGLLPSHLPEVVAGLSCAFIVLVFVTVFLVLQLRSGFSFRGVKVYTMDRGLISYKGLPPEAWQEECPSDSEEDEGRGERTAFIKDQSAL
Sequence of Coagulation factor X (P00742 41-179 limits assumed): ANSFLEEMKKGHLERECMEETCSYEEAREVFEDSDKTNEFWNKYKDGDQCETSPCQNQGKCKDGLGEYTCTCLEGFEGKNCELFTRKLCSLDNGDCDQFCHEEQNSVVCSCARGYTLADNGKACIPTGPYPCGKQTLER
Sequence of Coagulation factor X (P00742 235-488 limits assumed): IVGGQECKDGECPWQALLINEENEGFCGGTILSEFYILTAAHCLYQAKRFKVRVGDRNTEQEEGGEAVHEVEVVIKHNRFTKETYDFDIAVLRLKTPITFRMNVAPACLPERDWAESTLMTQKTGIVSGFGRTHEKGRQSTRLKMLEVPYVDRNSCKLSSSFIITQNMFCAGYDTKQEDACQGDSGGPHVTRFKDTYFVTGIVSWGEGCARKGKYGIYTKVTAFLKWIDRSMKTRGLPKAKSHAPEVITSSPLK

Structure (SMILES): CSc1oc(-c2ccc(Cl)cc2Cl)nc1[P+](c1ccccc1)(c1ccccc1)c1ccccc1
- IC50 [3]: 1700 nM
- Ki (Furin [2]): 1570 nM

Structure (SMILES): CC(CC1CCN(Cc2cc(Oc3cnc(N4CCN(C)CC4)nc3)nc(-c3cc(Cl)cc(Cl)c3)c2)CC1)C(=O)O (centres undefined)
- pXC50 (Furin [4]): 8
- IC50 (Furin [5]): 0.794 nM
- inhibition in vivo at 10 mg/kg (Mus musculus [6]): 81%
- inhibition in vivo at 10 mg/kg (Mus musculus [7]): 54%

Structure (SMILES): N=C(N)N/N=C/c1ccccc1OCc1ccc(Cl)cc1
- Ki (Furin [8]): 25300 nM

Results, then the compound that gave them:

- IC50 [1]: 30 nM
- IC50 (Furin [2]): 20 nM
Structure (SMILES): CC(=O)N[C@@H](CC(C)C)C(=O)N[C@@H](CC(C)C)C(=O)N[C@@H](CC(C)C)C(=O)N[C@@H](CC(C)C)C(=O)N[C@@H](CCCNC(=N)N)C(=O)N[C@H](C(=O)N[C@@H](CCCCN)C(=O)N[C@@H](CCCNC(=N)N)C(N)=O)C(C)C (Ac-LLLLRVKR-NH2)

- Ki [9]: 690 nM
- Ki (Coagulation factor X): > 3000 nM
- Ki (Prothrombin): > 3000 nM
- Ki (Furin [10]): 0.0101 nM
- Ki (Plasminogen): > 3000 nM
Structure (SMILES): CC(C)(C)[C@H](NC(=O)[C@H](CCCONC(=N)N)NC(=O)Cc1ccc(CNC(=N)N)cc1)C(=O)N[C@@H](CCCONC(=N)N)C(=O)NCc1ccc(C(=N)N)cc1
